The values below come from PMC9658984, “Acetylation Enhances the Anticancer Activity and Oral Bioavailability of 5-Demethyltangeretin” (International Journal of Molecular Sciences, 2022).

The structures appear in SMILES notation.

The test system of one data set is PC-3 cells. In words: Cell cycle distribution / sub-G1 apoptotic ratio by PI flow cytometry. Type of data set: cell-based, human. The conditions noted are these: 48 h. The protocol: PC-3 cells were seeded in 96-well plates at a density of 2.5 × 10^3 cells/well and allowed to attach for 24 h. The medium was changed to serum-free RPMI supplemented with 0–20 μM TAN, 5-DTAN, or 5-ATAN, and then incubated for an additional 48 h. The cell viability was determined by the MTT assay and represented as a percentage of the growth of the DMSO-treated cells. FACScan flow cytometer (Becton Dickinson, San Jose, CA, USA) was used to analyze the cell cycle distribution as previously mentioned. Briefly, PC-3 cells treated with various concentrations of 5-DTAN or 5-ATAN for 48 h were trypsinized and gently fixed in 70% ice-cold ethanol and stored at −20 °C for at least 24 h. Then, the cells were washed with cold phosphate-buffered saline (PBS), followed by incubation with 40 μg/mL PI, 0.1 mg/mL RNase A, and 0.1% TritonX-100 in the dark for 30 min at room temperature. Subsequently, the cell cycle distribution of the PI-stained cells was analyzed by a FACScan flow cytometer, and the results were analyzed and calculated using ModFit LT Ver. 3.0 software. The proportion of the sub-G1 phase was quantitated and represented as the apoptotic ratio. Furthermore, a QIAamp DNA mini kit was used to extract DNA from the PC-3 cells treated with 5-DTAN or 5-ATAN for 48 h. Then, the extracted DNA was loaded on a 2% agarose gel containing HealthView^TM Nucleic Acid Stain (Genomics, New Taipei, Taiwan) for electrophoresis at 50 V. The gel was visualized under UV light, and the DNA fragmentation pattern was photographed.
A general note: Flow cytometry measures light scatter and fluorescence of single cells or particles in a stream.

A further data set has as its system PC-3 cell xenografts. In words: Tumor growth inhibition in PC-3 cell xenograft model. Type of data set: in vivo, nude mice. An excerpt:
Male nu/nu mice were obtained from BioLasco Taiwan (Taipei, Taiwan) and maintained on a standard laboratory chow (Purina rodent chow 5001, Purina, St. Louis, MO, USA). At 5 weeks of age, nude mice were used for the xenograft experiment. For the oral bioavailability study, 5-week-old male […] mice were purchased from the National Laboratory Animal Center (Taipei, Taiwan), and the experiment was started after 1 week of acclimation. All mice were housed in an air-conditioned room (temperature: 22 ± 2 °C; humidity: 50–60%) under standard conditions (12 h light/12 h dark cycle). All animal studies were approved by the National Pingtung University of Science and Technology, Institutional Animal Care and Use Committee with protocol numbers NPUST-102-015 and NPUST-105-045.
The 5-week-old nude mice were divided into three groups (n = 6) and administered with the vehicle, 5-DTAN (10 mg/kg), and 5-ATAN (10 mg/kg), respectively. Tumors were established by subcutaneous injections of PC-3 cells (1 × 10^6 cells) into the right flank side of nude mice. The tumor size was measured twice a week with digital calipers, and the tumor volume (V) was calculated by the following formula: V = length × width^2 × 0.5. On day 24, the mice were sacrificed by CO2, and the tumors were harvested and weighed.

A short description of data set [1]: Tissue distribution of 5-DTAN after 7 days oral dosing. Type of data set: in vivo. Conditions: 50 mg/kg i.g., 7 consecutive days, C57BL/6J mice; except kidney and lung. How it is done: Basically, esterase in the cytosol and plasma rapidly converts 5-ATAN absorbed into cells or into the blood circulation to 5-DTAN by deacetylation. The 5-DTAN in 5-DTAN-treated and 5-ATAN-treated samples can be determined by the HPLC-electrochemical detection (ECD) method. PC-3 cells were seeded in 10 cm dishes (1 × 10^6 cells) and allowed to attach for 24 h. Subsequently, cells were treated with various concentrations of 5-DTAN or 5-ATAN for 12 h, or with 15 µM of 5-DTAN or 5-ATAN for different time periods. Then, the cells were washed with cold PBS, collected, and centrifuged at 300× g for 5 min to remove the supernatant. […] The cytosolic levels of 5-DTAN in the resulting supernatant were analyzed by HPLC with an Ascentis RP-Amide column (L × I.D. 15 cm × 4.6 mm, 3 μm) (Merck KGaA, Darmstadt, Germany) as previously described. […] The samples were reconstituted in methanol and the levels of 5-DTAN were analyzed by HPLC-ECD. Pharmacokinetic parameters, including maximum concentration (Cmax), maximum time (Tmax), half-life (T1/2), and area under the curve (AUC), were calculated and obtained by the Thermo kinetica 5.0 software (Thermo Fisher Scientific, Waltham, MA, USA). […] The supernatant was obtained by centrifuging at 15,130× g for 15 min at 4 °C and then extracted with an equal volume of ethyl acetate and analyzed using the methods described above.

For `COc1ccc(-c2cc(=O)c3c(OC(C)=O)c(OC)c(OC)c(OC)c3o2)cc1` [5-ATAN, 5-acetyloxy-6,7,8,4′-tetramethoxyflavone], in the data set on PC-3 cells (2.5 μM), the “Cell Cycle Distribution (%) G0/G1” value is reported as 58.5 ± 1.1 ^A %, the “Cell Cycle Distribution (%) G2/M” value is given as 34.7 ± 0.8 ^C % and the “Cell Cycle Distribution (%) S” value was 6.8 ± 0.3 ^B %. For the same compound, in the data set with PC-3 cells (5 μM), the “Cell Cycle Distribution (%) G0/G1” value was 49.1 ± 0.3 ^B %, the “Cell Cycle Distribution (%) G2/M” value is reported as 45.7 ± 0.5 ^B % and the “Cell Cycle Distribution (%) S” value is 5.2 ± 0.3 ^C %. Also, in the data set on PC-3 cells (10 μM), the “Apoptotic cells (sub-G1)” value is 22.2%, the “Cell Cycle Distribution (%) G0/G1” value is listed as 44.7 ± 0.3 ^C %, the “Cell Cycle Distribution (%) G2/M” value is 50.3 ± 1.3 ^A % and the “Cell Cycle Distribution (%) S” value was 4.6 ± 0.5 ^D %. Also, in the data set with PC-3 cell xenografts (10 mg/kg daily oral, nude mice), the “Tumor growth inhibitory rate, estimated by the means of tumor weight” value is given as 61.9%. Besides, in the data set with PC-3 cell xenografts (10 mg/kg daily oral, nude mice, day 24, control 2.47 ± 0.43 g), the “Tumor weight at the end of the experiment” value amounted to 0.94 ± 0.18 g. Further, the “Effect on tumor volume” value with PC-3 cell xenografts (10 mg/kg daily, PC-3 cell xenografts in nude mice) was “significantly suppressed”. Moreover, the “Levels of 5-DTAN in most tissues vs 5-DTAN-treated mice” value in data set [1] is “significantly higher”.
